In patent publication US10793568B2, “Hormone receptor modulators for treating metabolic conditions and disorders” (ARDELYX, INC., priority 2016, dated 2020):
Like-named read-outs stand apart in the source and are kept apart here.

How the values were obtained:
[1] = target: ligand binding domain of human FXR (Homo sapiens (Human), UniProt Q96RI1); test: FXR ligand binding assay (LanthaScreen TR-FRET, SRC2-2 peptide recruitment); settings: for Emax: read-out: % Efficacy
[2] = target: human Farnesoid X receptor ligand-binding domain/Gal4 DNA binding domain chimera (Homo sapiens (Human), UniProt Q96RI1); test: Cell-based assay of FXR activation (FXR-UAS-bla HEK 293T beta-lactamase reporter); settings: cellular FXR beta-lactamase reporter assay; for Emax: HEK-293T, extent of activation relative to GW4064, read-out: % Efficacy; for EC50: FXR-UAS-bla HEK 293T cells, 16 h, pEC50 = -log EC50
Outline: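 Readout is cleavage of the CCF4 FRET substrate (409 nm excitation, blue 447 nm signal) by beta-lactamase, expressed under UAS control after a Gal4–human FXR LBD chimera is activated in HEK 293T cells. Compounds were added as 3-fold dilutions for 16 h at 37 °C in 2% charcoal-stripped FBS medium. Curves were fit to a 3-parameter logistic equation to give pEC50, with % activation relative to GW4064.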

[3] = -log EC50, concentration required to produce 50% activation
[4] = extent of activation relative to GW4064

Chain of human Farnesoid X receptor ligand-binding domain/Gal4 DNA binding domain chimera (Q96RI1 262-486, change not shown): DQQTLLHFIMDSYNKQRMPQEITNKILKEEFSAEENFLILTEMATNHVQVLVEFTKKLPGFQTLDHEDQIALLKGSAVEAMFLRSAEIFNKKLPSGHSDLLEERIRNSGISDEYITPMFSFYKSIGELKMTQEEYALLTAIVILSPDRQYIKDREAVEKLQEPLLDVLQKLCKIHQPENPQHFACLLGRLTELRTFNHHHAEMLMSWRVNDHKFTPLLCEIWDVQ
Chain of human Farnesoid X receptor ligand-binding domain/Gal4 DNA binding domain chimera (P04386 1-147 partner): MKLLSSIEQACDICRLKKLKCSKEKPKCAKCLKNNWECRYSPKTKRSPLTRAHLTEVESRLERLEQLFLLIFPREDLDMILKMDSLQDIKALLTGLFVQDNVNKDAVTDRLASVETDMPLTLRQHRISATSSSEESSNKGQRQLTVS
Chain of ligand binding domain of human FXR (Q96RI1 262-486): as the sequence (Q96RI1 262-486, change not shown) above

Compound	pEC50 [1, 3]	Emax [1, 4]	Emax [2]	EC50 [2]	Emax [1]	EC50 [1, 3]
COC(=O)c1ccc(N2C[C@@H]3C[C@H]2C[C@H]3OCc2c(-c3c(Cl)cccc3Cl)noc2C2CC2)cc1F [Compound I-177, methyl 4-[(1S,4S,5R)-5-{[5-cyclopropyl-3-(2,6-dichlorophenyl)-1,2-oxazol-4-yl]methoxy}-2-azabicyclo[2.2.1]heptan-2-yl]-2-fluorobenzoate]	7.4	130%	109%	12.6 nM	–	–
O=C(O)c1nnc(N2C[C@@H]3C[C@H]2C[C@H]3OCc2c(-c3c(Cl)cccc3Cl)noc2C2CC2)s1 [Compound I-178, 5-[(1S,4S,5R)-5-{[5-cyclopropyl-3-(2,6-dichlorophenyl)-1,2-oxazol-4-yl]methoxy}-2-azabicyclo[2.2.1]heptan-2-yl]-1,3,4-thiadiazole-2-carboxylic Acid]	6.9	86%	70%	158 nM	–	–
Cn1nc(C(=O)O)cc1N1C[C@@H]2C[C@H]1C[C@H]2OCc1c(-c2c(Cl)cccc2Cl)noc1C1CC1 [Compound I-180, 5-[(1S,4S,5R)-5-[[5-cyclopropyl-3-(2,6-dichlorophenyl)-1,2-oxazol-4-yl]methoxy]-2-azabicyclo[2.2.1]heptan-2-yl]-1-methyl-1H-pyrazole-3-carboxylic acid]	>6.5	–	–	< 316 nM	–	–
O=C(NS(=O)(=O)C1CCCCC1)c1ccc(N2C[C@@H]3C[C@H]2C[C@H]3OCc2c(-c3c(Cl)cccc3Cl)noc2C2CC2)cc1 [Compound I-181, N-(cyclohexanesulfonyl)-4-[(1S,4S,5R)-5-{[5-cyclopropyl-3-(2,6-dichlorophenyl)-1,2-oxazol-4-yl]methoxy}-2-azabicyclo[2.2.1]heptan-2-yl]benzamide]	8.8	–	110%	0.0631 nM	166%	–
O=C(NS(=O)(=O)C1CCOCC1)c1ccc(N2C[C@@H]3C[C@H]2C[C@H]3OCc2c(-c3c(Cl)cccc3Cl)noc2C2CC2)cc1 [Compound I-182, 4-[(1S,4S,5R)-5-{[5-cyclopropyl-3-(2,6-dichlorophenyl)-1,2-oxazol-4-yl]methoxy}-2-azabicyclo[2.2.1]heptan-2-yl]-N-(oxane-4-sulfonyl)benzamide]	–	156%	106%	0.158 nM	–	1.26 nM
O=C(NS(=O)(=O)C1CCC1)c1ccc(N2C[C@@H]3C[C@H]2C[C@H]3OCc2c(-c3c(Cl)cccc3Cl)noc2C2CC2)cc1 [Compound I-183, N-(cyclobutylsulfonyl)-4-((1S,4S,5R)-5-((5-cyclopropyl-3-(2,6-dichlorophenyl)isoxazol-4-yl)methoxy)-2-azabicyclo[2.2.1]heptan-2-yl)benzamide]	8.6	163%	119%	0.1 nM	–	–
O=C(NS(=O)(=O)C1COC1)c1ccc(N2C[C@@H]3C[C@H]2C[C@H]3OCc2c(-c3c(Cl)cccc3Cl)noc2C2CC2)cc1 [Compound I-184, 4-((1S,4S,5R)-5-((5-cyclopropyl-3-(2,6-dichlorophenyl)isoxazol-4-yl)methoxy)-2-azabicyclo[2.2.1]heptan-2-yl)-N-(oxetan-3-ylsulfonyl)benzamide]	7.7	161%	108%	3.16 nM	–	–
O=C(NS(=O)(=O)C1CCOC1)c1ccc(N2C[C@@H]3C[C@H]2C[C@H]3OCc2c(-c3c(Cl)cccc3Cl)noc2C2CC2)cc1 (stereo partly drawn) [Compound I-185, 4-((1S,4S,5R)-5-((5-cyclopropyl-3-(2,6-dichlorophenyl)isoxazol-4-yl)methoxy)-2-azabicyclo[2.2.1]heptan-2-yl)-N-((tetrahydrofuran-3-yl)sulfonyl)benzamide]	8.9	155%	105%	0.1 nM	–	–
O=C(NS(=O)(=O)CC1CCOC1)c1ccc(N2C[C@@H]3C[C@H]2C[C@H]3OCc2c(-c3c(Cl)cccc3Cl)noc2C2CC2)cc1 (stereo partly drawn) [Compound I-186, 4-((1S,4S,5R)-5-((5-cyclopropyl-3-(2,6-dichlorophenyl)isoxazol-4-yl)methoxy)-2-azabicyclo[2.2.1]heptan-2-yl)-N-(((tetrahydrofuran-3-yl)methyl)sulfonyl)benzamide]	8.9	134%	107%	0.158 nM	–	–
CN1CCC(S(=O)(=O)NC(=O)c2ccc(N3C[C@@H]4C[C@H]3C[C@H]4OCc3c(-c4c(Cl)cccc4Cl)noc3C3CC3)cc2)CC1 [Compound I-187, 4-((1S,4S,5R)-5-((5-cyclopropyl-3-(2,6-dichlorophenyl)isoxazol-4-yl)methoxy)-2-azabicyclo[2.2.1]heptan-2-yl)-N-((1-methylpiperidin-4-yl)sulfonyl)benzamide]	9.2	156%	104%	10 nM	–	–
O=C(NS(=O)(=O)c1cn[nH]c1)c1ccc(N2C[C@@H]3C[C@H]2C[C@H]3OCc2c(-c3c(Cl)cccc3Cl)noc2C2CC2)cc1 [Compound I-188, N-((1H-pyrazol-4-yl)sulfonyl)-4-((1S,4S,5R)-5-((5-cyclopropyl-3-(2,6-dichlorophenyl)isoxazol-4-yl)methoxy)-2-azabicyclo[2.2.1]heptan-2-yl)benzamide]	–	150%	100%	6.31 nM	–	–
CC(C)CCS(=O)(=O)NC(=O)c1ccc(N2C[C@@H]3C[C@H]2C[C@H]3OCc2c(-c3c(Cl)cccc3Cl)noc2C2CC2)c(F)c1 [Compound I-190, 4-((1S,4S,5R)-5-((5-cyclopropyl-3-(2,6-dichlorophenyl)isoxazol-4-yl)methoxy)-2-azabicyclo[2.2.1]heptan-2-yl)-3-fluoro-N-(isopentylsulfonyl)benzamide]	8.4	163%	113%	0.0631 nM	–	–
CCCCCS(=O)(=O)NC(=O)c1ccc(N2C[C@@H]3C[C@H]2C[C@H]3OCc2c(-c3c(Cl)cccc3Cl)noc2C2CC2)c(F)c1 [Compound I-191, 4-((1S,4S,5R)-5-((5-cyclopropyl-3-(2,6-dichlorophenyl)isoxazol-4-yl)methoxy)-2-azabicyclo[2.2.1]heptan-2-yl)-3-fluoro-N-(pentylsulfonyl)benzamide]	8.4	163%	111%	0.0398 nM	–	–
CCCCCCCCS(=O)(=O)NC(=O)c1ccc(N2C[C@@H]3C[C@H]2C[C@H]3OCc2c(-c3c(Cl)cccc3Cl)noc2C2CC2)c(F)c1 [Compound I-192, 4-((1S,4S,5R)-5-((5-cyclopropyl-3-(2,6-dichlorophenyl)isoxazol-4-yl)methoxy)-2-azabicyclo[2.2.1]heptan-2-yl)-3-fluoro-N-(octylsulfonyl)benzamide]	7.9	152%	106%	0.2 nM	–	–
CCOCCOCCS(=O)(=O)NC(=O)c1ccc(N2C[C@@H]3C[C@H]2C[C@H]3OCc2c(-c3c(Cl)cccc3Cl)noc2C2CC2)c(F)c1 [Compound I-193, 4-((1S,4S,5R)-5-((5-cyclopropyl-3-(2,6-dichlorophenyl)isoxazol-4-yl)methoxy)-2-azabicyclo[2.2.1]heptan-2-yl)-N-((2-(2-ethoxyethoxy)ethyl)sulfonyl)-3-fluorobenzamide]	8.2	138%	114%	1.58 nM	–	–
CCCS(=O)(=O)NC(=O)c1ccc(N2C[C@@H]3C[C@H]2C[C@H]3OCc2c(-c3c(Cl)cccc3Cl)noc2C2CC2)cc1F [Compound I-194, 4-((1S,4S,5R)-5-((5-cyclopropyl-3-(2,6-dichlorophenyl)isoxazol-4-yl)methoxy)-2-azabicyclo[2.2.1]heptan-2-yl)-2-fluoro-N-(propylsulfonyl)benzamide]	9	141%	104%	0.2 nM	–	–
O=C(NS(=O)(=O)C1CC1)c1ccc(N2C[C@@H]3C[C@H]2C[C@H]3OCc2c(-c3c(Cl)cccc3Cl)noc2C2CC2)cc1F [Compound I-195, 4-((1S,4S,5R)-5-((5-cyclopropyl-3-(2,6-dichlorophenyl)isoxazol-4-yl)methoxy)-2-azabicyclo[2.2.1]heptan-2-yl)-N-(cyclopropylsulfonyl)-2-fluorobenzamide]	8.8	144%	109%	0.316 nM	–	–
O=C(NS(=O)(=O)C1CC1)c1ccc(N2C[C@@H]3C[C@H]2C[C@H]3OCc2c(-c3c(Cl)cccc3Cl)noc2C2(F)CC2)cc1 [Compound I-196, N-(cyclopropylsulfonyl)-4-((1S,4S,5R)-5-((3-(2,6-dichlorophenyl)-5-(1-fluorocyclopropyl)isoxazol-4-yl)methoxy)-2-azabicyclo[2.2.1]heptan-2-yl)benzamide]	8.5	154%	110%	0.794 nM	–	–
O=C(NS(=O)(=O)C1CC1)c1ccc(N2C[C@@H]3C[C@H]2C[C@H]3OCc2c(-c3c(Cl)cccc3Cl)noc2C2(F)CC2)c(F)c1 [Compound I-197, N-(cyclopropylsulfonyl)-4-((1S,4S,5R)-5-((3-(2,6-dichlorophenyl)-5-(1-fluorocyclopropyl)isoxazol-4-yl)methoxy)-2-azabicyclo[2.2.1]heptan-2-yl)-3-fluorobenzamide]	8.5	167%	111%	0.501 nM	–	–
CCCS(=O)(=O)NC(=O)c1ccc(N2C[C@@H]3C[C@H]2C[C@H]3OCc2c(-c3c(Cl)cccc3Cl)noc2C2(F)CC2)c(F)c1 [Compound I-198, 4-((1S,4S,5R)-5-((3-(2,6-dichlorophenyl)-5-(1-fluorocyclopropyl)isoxazol-4-yl)methoxy)-2-azabicyclo[2.2.1]heptan-2-yl)-3-fluoro-N-(propylsulfonyl)benzamide]	8.5	178%	112%	0.501 nM	–	–
